Measured values reported in patent publication US4822790A, “1-Sulfo-2-oxoazetidine derivatives and their production” (Takeda Chemical Industries, Ltd., priority 1980, dated 1989).

What was measured:
[1] = biological target: T1, β-lactamase produced by Enterobacter cloacae PN 1282 (Enterobacter cloacae, UniProt P05364); assay: Inhibitor concentration required to inhibit the β-lactamase (cephalosporinase) activity by 50%, micro-iodometric method; type: biochemical; details: 0.05M phosphate buffer (pH 7), 30° C., 10 min preincubation, cephalothin 0.1 mM, read-out: I50 (inhibitor concentration required to inhibit the enzyme activity by 50%) (converted)
T1 construct: cephalothin substrate, micro-iodometric
Procedure: "Determination of the inhibitor concentration required to inhibit the enzyme activity by 50%"
The β-lactamase produced by Enterobacter cloacae PN 1282 is used as a typical example of cephalosporinase. The β-lactamase is incubated in 0.05M phosphate buffer (pH 7) with an appropriate dilution of an inhibitor preparation at 30° C. for 10 minutes. Cephalothin is then added in an amount sufficient to produce a final concentration of 0.1 mM, and the enzymatic reaction is allowed to proceed for 10 minutes. The enzyme activity is determined by the micro-iodometric method [Journal of general Microbiology, vol. 33, page 121 (1963)]. Hereinafter, the inhibitor concentration required to inhibit the enzyme activity by 50% is expressed as I50.

[2] = system: Streptococcus pneumoniae Type I; assay: Antibacterial test (MIC), Streptococcus pneumoniae Type I; type: cell-based; details: medium B-TSA
Text: (§1) The following is media and compounds employed in the antibacterial test.
(§2) TSA=Trypticase soy agar [Baltimore Biologicals (U.S.A.)]
(§3) B-TSA=Blood trypticase soy agar

[3] = system: Pseudomonas aeruginosa U 31; assay: Antibacterial test (MIC), Pseudomonas aeruginosa U 31; type: cell-based; details: medium TSA
Text: as §1, §2, §3

[4] = system: Proteus morganii IFO 3168; assay: Antibacterial test (MIC), Proteus morganii IFO 3168; type: cell-based; details: medium TSA
Text: as §1, §2, §3

Candida albicans TA = assay: Antibacterial test (MIC), Candida albicans TA; type: cell-based; details: medium TSA
Text: as §1, §2, §3

[5] = system: Corynebacterium diphtheriae Toronto; assay: Antibacterial test (MIC), Corynebacterium diphtheriae Toronto; type: cell-based; details: medium B-TSA
Text: as §1, §2, §3

[6] = system: Pseudomonas aeruginosa IFO 3455; assay: Antibacterial test (MIC), Pseudomonas aeruginosa IFO 3455; type: cell-based; details: medium TSA
Text: as §1, §2, §3

[7] = system: Serratia marcescens IFO 12648; assay: Antibacterial test (MIC), Serratia marcescens IFO 12648; type: cell-based; details: medium TSA
Text: as §1, §2, §3

[8] = system: Streptococcus mitis America; assay: Antibacterial test (MIC), Streptococcus mitis America; type: cell-based; details: medium B-TSA
Text: as §1, §2, §3

Escherichia coli 0-111 = assay: Antibacterial test (MIC), Escherichia coli 0-111; type: cell-based; details: medium TSA
Text: as §1, §2, §3

[9] = system: Escherichia coli NIHJ JC-2; assay: Antibacterial test (MIC), Escherichia coli NIHJ JC-2; type: cell-based; details: medium TSA
Text: as §1, §2, §3

[10] = system: Streptococcus pyogenes S-8; assay: Antibacterial test (MIC), Streptococcus pyogenes S-8; type: cell-based; details: medium B-TSA
Text: as §1, §2, §3

[11] = system: Staphylococcus aureus 1840; assay: Antibacterial test (MIC), Staphylococcus aureus 1840; type: cell-based; details: medium TSA
Text: as §1, §2, §3

[12] = system: Acinetobacter calcoaceticus IFO 13006; assay: Antibacterial test (MIC), Acinetobacter calcoaceticus IFO 13006; type: cell-based; details: medium TSA
Text: as §1, §2, §3

[13] = system: Streptococcus faecium IFO 3128; assay: Antibacterial test (MIC), Streptococcus faecium IFO 3128; type: cell-based; details: medium B-TSA
Text: as §1, §2, §3

[14] = system: Streptococcus pyogenes E-14; assay: Antibacterial test (MIC), Streptococcus pyogenes E-14; type: cell-based; details: medium B-TSA
Text: as §1, §2, §3

Klebsiella pneumoniae DT = assay: Antibacterial test (MIC), Klebsiella pneumoniae DT; type: cell-based; details: medium TSA
Text: as §1, §2, §3

[15] = system: Bordetella bronchiseptica Sagami; assay: Antibacterial test (MIC), Bordetella bronchiseptica Sagami; type: cell-based; details: medium B-TSA
Text: as §1, §2, §3

[16] = system: Citrobacter freundii IFO 12681; assay: Antibacterial test (MIC), Citrobacter freundii IFO 12681; type: cell-based; details: medium TSA
Text: as §1, §2, §3

Escherichia coli T-7 = assay: Antibacterial test (MIC), Escherichia coli T-7; type: cell-based; details: medium TSA
Text: as §1, §2, §3

[17] = system: Proteus mirabilis IFO 3849; assay: Antibacterial test (MIC), Proteus mirabilis IFO 3849; type: cell-based; details: medium TSA
Text: as §1, §2, §3

[18] = system: Staphylococcus aureus FDA209P; assay: Antibacterial test (MIC), Staphylococcus aureus FDA209P; type: cell-based
Text: as §1, §2, §3

[19] = system: Staphylococcus aureus 308A-1; assay: Antibacterial test (MIC), Staphylococcus aureus 308A-1; type: cell-based; details: medium TSA
Text: as §1, §2, §3

[20] = system: Proteus vulgaris IFO 3988; assay: Antibacterial test (MIC), Proteus vulgaris IFO 3988; type: cell-based; details: medium TSA
Text: as §1, §2, §3

[21] = system: Enterobacter cloacae IFO 12937; assay: Antibacterial test (MIC), Enterobacter cloacae IFO 12937; type: cell-based; details: medium TSA
Text: as §1, §2, §3

T1 sequence (P05364 21-381): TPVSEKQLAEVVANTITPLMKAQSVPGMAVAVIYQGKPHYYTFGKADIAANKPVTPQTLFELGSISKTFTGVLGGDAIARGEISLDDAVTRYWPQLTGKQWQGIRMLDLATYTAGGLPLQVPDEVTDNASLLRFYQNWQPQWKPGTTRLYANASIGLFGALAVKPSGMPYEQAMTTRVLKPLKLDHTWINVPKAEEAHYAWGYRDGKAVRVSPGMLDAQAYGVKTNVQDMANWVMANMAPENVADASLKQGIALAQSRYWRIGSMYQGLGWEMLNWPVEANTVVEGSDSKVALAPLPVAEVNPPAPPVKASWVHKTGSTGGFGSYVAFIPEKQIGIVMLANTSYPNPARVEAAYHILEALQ

## CON=C(C(=O)N[C@@H]1C(=O)N(S(=O)(=O)O)[C@H]1Sc1ccccc1)c1csc(N)n1
[1]
  IC50: 59 nM

## CCN1CCN(C(=O)N[C@@H](C(=O)NC2CN(S(=O)(=O)[O-])C2=O)c2cccs2)C(=O)C1=O.[Na+] (stereo partly drawn) [Compound F, Sodium 3-[D-2-(4-ethyl-2,3-dioxo-1-piperazinocarboxamido)-2-thienylacetamido]-2-oxoazetidine-1-sulfonate]
[2]
  Minimum inhibitory concentration (MIC): 6.25 µg/mL
[3]
  Minimum inhibitory concentration (MIC): > 100 µg/mL
[4]
  Minimum inhibitory concentration (MIC): 12.5 µg/mL
Candida albicans TA
  Minimum inhibitory concentration (MIC): > 100 µg/mL
[5]
  Minimum inhibitory concentration (MIC): 0.78 µg/mL
[6]
  Minimum inhibitory concentration (MIC): 6.25 µg/mL
[7]
  Minimum inhibitory concentration (MIC): 1.56 µg/mL
[8]
  Minimum inhibitory concentration (MIC): 25 µg/mL
Escherichia coli 0-111
  Minimum inhibitory concentration (MIC): 0.2 µg/mL
[9]
  Minimum inhibitory concentration (MIC): 0.78 µg/mL
[10]
  Minimum inhibitory concentration (MIC): 3.13 µg/mL
[11]
  Minimum inhibitory concentration (MIC): 25 µg/mL
[12]
  Minimum inhibitory concentration (MIC): 25 µg/mL
[13]
  Minimum inhibitory concentration (MIC): > 100 µg/mL
[14]
  Minimum inhibitory concentration (MIC): 3.13 µg/mL
Klebsiella pneumoniae DT
  Minimum inhibitory concentration (MIC): 0.2 µg/mL
[15]
  Minimum inhibitory concentration (MIC): > 100 µg/mL
[16]
  Minimum inhibitory concentration (MIC): 1.56 µg/mL
Escherichia coli T-7
  Minimum inhibitory concentration (MIC): > 100 µg/mL
[17]
  Minimum inhibitory concentration (MIC): 0.78 µg/mL
[18]; medium B-TSA
  Minimum inhibitory concentration (MIC): 6.25 µg/mL
[18]; medium TSA
  Minimum inhibitory concentration (MIC): 6.25 µg/mL
[19]
  Minimum inhibitory concentration (MIC): 6.25 µg/mL
[20]
  Minimum inhibitory concentration (MIC): < 0.1 µg/mL
[21]
  Minimum inhibitory concentration (MIC): 50 µg/mL

## CON=C(C(=O)N[C@@H]1C(=O)N(S(=O)(=O)O)[C@@H]1SC)c1csc(N)n1
[1]
  IC50: 759 nM

## CS[C@@H]1[C@H](NC(=O)c2c(-c3c(Cl)cccc3Cl)noc2C)C(=O)N1S(=O)(=O)O
[1]
  IC50: 96.5 nM
